According to ChEMBL document CHEMBL1240428, “Conventional and microwave assisted synthesis of some new N-[(4-oxo-2-substituted aryl -1, 3-thiazolidine)-acetamidyl]-5-nitroindazoles and its antimicrobial activity” (2010):
Converted amounts (≈) assume the structure as drawn.

Tests used:
[1] = tested on: Aspergillus flavus; test: Antifungal activity against Aspergillus flavus at 100 ug/mL; assay type: functional; settings: read-out: IZ
[2] = tested on: Fusarium oxysporum; test: Antifungal activity against Fusarium oxysporum at 100 ug/mL; assay type: functional; settings: read-out: IZ
[3] = tested on: Bacillus subtilis; test: Antibacterial activity against Bacillus subtilis; assay type: functional
[4] = tested on: Salmonella typhi; test: Antibacterial activity against Salmonella typhi at 100 ug/mL; settings: read-out: IZ
[5] = tested on: Escherichia coli; test: Antibacterial activity against Escherichia coli at 100 ug/mL; assay type: functional; settings: read-out: IZ
[6] = tested on: Aspergillus flavus; test: Antifungal activity against Aspergillus flavus at 50 ug/mL; assay type: functional; settings: read-out: IZ
[7] = tested on: Aspergillus flavus; test: Antifungal activity against Aspergillus flavus; assay type: functional
[8] = tested on: Penicillium citrinum; test: Antifungal activity against Penicillium citrinum at 100 ug/mL; assay type: functional; settings: read-out: IZ
[9] = tested on: Salmonella typhi; test: Antibacterial activity against Salmonella typhi at 50 ug/mL; settings: read-out: IZ
[10] = tested on: Fusarium oxysporum; test: Antifungal activity against Fusarium oxysporum at 50 ug/mL; assay type: functional; settings: read-out: IZ
[11] = tested on: Fusarium oxysporum; test: Antifungal activity against Fusarium oxysporum; assay type: functional
[12] = tested on: Escherichia coli; test: Antibacterial activity against Escherichia coli at 50 ug/mL; assay type: functional; settings: read-out: IZ
[13] = tested on: Escherichia coli; test: Antibacterial activity against Escherichia coli; assay type: functional
[14] = tested on: Penicillium citrinum; test: Antifungal activity against Penicillium citrinum; assay type: functional
[15] = tested on: Bacillus subtilis; test: Antibacterial activity against Bacillus subtilis at 50 ug/mL; assay type: functional; settings: read-out: IZ
[16] = tested on: Penicillium citrinum; test: Antifungal activity against Penicillium citrinum at 50 ug/mL; assay type: functional; settings: read-out: IZ
[17] = tested on: Bacillus subtilis; test: Antibacterial activity against Bacillus subtilis at 100 ug/mL; assay type: functional; settings: read-out: IZ
[18] = tested on: Salmonella typhi; test: Antibacterial activity against Salmonella typhi

Compound | zone of inhibition at 100 µg/mL [1] [mm] | zone of inhibition at 100 µg/mL [2] [mm] | MIC [3] [µg/mL] | zone of inhibition at 100 µg/mL [4] [mm] | zone of inhibition at 100 µg/mL [5] [mm] | zone of inhibition at 50 µg/mL [6] [mm] | MIC [7] [µg/mL] | zone of inhibition at 100 µg/mL [8] [mm] | zone of inhibition at 50 µg/mL [9] [mm] | zone of inhibition at 50 µg/mL [10] [mm] | MIC [11] [µg/mL] | zone of inhibition at 50 µg/mL [12] [mm] | MIC [13] [µg/mL] | MIC [14] [µg/mL] | zone of inhibition at 50 µg/mL [15] [mm] | zone of inhibition at 50 µg/mL [16] [mm] | zone of inhibition at 100 µg/mL [17] [mm] | MIC [18] [µg/mL]
CN(C)c1ccc(/C=N/NC(=O)Cn2ncc3cc([N+](=O)[O-])ccc32)cc1 | 12.4 | 13.8 | 41 (≈ 112 µM) | 12 | 12.5 | 9.5 | 27 (≈ 73.7 µM) | 11.5 | 8.6 | 11.4 | 23 (≈ 62.8 µM) | 10.6 | 30 (≈ 81.9 µM) | 36 (≈ 98.3 µM) | 7.5 | 8.2 | 11 | 32 (≈ 87.3 µM)
O=C(Cn1ncc2cc([N+](=O)[O-])ccc21)NN1C(=O)CSC1c1ccccc1 (stereo not given) | 19 | 20 | 23 (≈ 57.9 µM) | 18.4 | 19.1 | 16 | 19 (≈ 47.8 µM) | 18.4 | 14.6 | 17.1 | 15 (≈ 37.7 µM) | 17.2 | 18 (≈ 45.3 µM) | 25 (≈ 62.9 µM) | 13.5 | 14.8 | 17.4 | 18 (≈ 45.3 µM)
O=C(Cn1ncc2cc([N+](=O)[O-])ccc21)NN1C(=O)CSC1c1ccccc1O (stereo not given) | 20.4 | 21.4 | 21 (≈ 50.8 µM) | 19.9 | 20.5 | 17.3 | 18 (≈ 43.5 µM) | 19.7 | 16 | 18.5 | 15 (≈ 36.3 µM) | 18.4 | 16 (≈ 38.7 µM) | 22 (≈ 53.2 µM) | 14.7 | 16 | 18.9 | 17 (≈ 41.1 µM)
O=C(Cn1ncc2cc([N+](=O)[O-])ccc21)NN1C(=O)CSC1c1ccccc1Cl (stereo not given) | 24 | 25 | 17 (≈ 39.4 µM) | 23 | 24.5 | 21.3 | 14 (≈ 32.4 µM) | 23.5 | 19.2 | 22 | 11 (≈ 25.5 µM) | 21.4 | 13 (≈ 30.1 µM) | 17 (≈ 39.4 µM) | 18 | 19.4 | 22.6 | 15 (≈ 34.7 µM)
O=C(Cn1ncc2cc([N+](=O)[O-])ccc21)NN1C(=O)CSC1c1ccc(Cl)cc1 (stereo not given) | 25 | 25.8 | 16 (≈ 37 µM) | 23.9 | 25.6 | 22.3 | 13 (≈ 30.1 µM) | 24.4 | 20 | 22.9 | 11 (≈ 25.5 µM) | 22.3 | 13 (≈ 30.1 µM) | 17 (≈ 39.4 µM) | 18.8 | 20.2 | 23.7 | 15 (≈ 34.7 µM)
O=C(Cn1ncc2cc([N+](=O)[O-])ccc21)NN1C(=O)CSC1c1ccccc1Br (stereo not given) | 21.7 | 22.6 | 20 (≈ 42 µM) | 21 | 21.8 | 18.8 | 17 (≈ 35.7 µM) | 21 | 17.2 | 19.8 | 13 (≈ 27.3 µM) | 19.2 | 17 (≈ 35.7 µM) | 20 (≈ 42 µM) | 16 | 17.2 | 20.5 | 17 (≈ 35.7 µM)
O=C(Cn1ncc2cc([N+](=O)[O-])ccc21)NN1C(=O)CSC1c1cccc(Br)c1 (stereo not given) | 22.8 | 23.7 | 18 (≈ 37.8 µM) | 21.9 | 23 | 20 | 17 (≈ 35.7 µM) | 22 | 18 | 20.8 | 13 (≈ 27.3 µM) | 20.2 | 15 (≈ 31.5 µM) | 20 (≈ 42 µM) | 16.9 | 18 | 21.4 | 17 (≈ 35.7 µM)
O=C(Cn1ncc2cc([N+](=O)[O-])ccc21)NN1C(=O)CSC1c1ccccc1[N+](=O)[O-] (stereo not given) | 26.1 | 27 | 15 (≈ 33.9 µM) | 25 | 26.9 | 23.6 | 11 (≈ 24.9 µM) | 25.6 | 21.2 | 24.2 | 9 (≈ 20.3 µM) | 23.5 | 11 (≈ 24.9 µM) | 15 (≈ 33.9 µM) | 20 | 21.4 | 25.5 | 13 (≈ 29.4 µM)
O=C(Cn1ncc2cc([N+](=O)[O-])ccc21)NN1C(=O)CSC1c1cccc([N+](=O)[O-])c1 (stereo not given) | 27 | 28.4 | 15 (≈ 33.9 µM) | 25.8 | 28 | 24.7 | 11 (≈ 24.9 µM) | 26.5 | 22 | 25.1 | 8 (≈ 18.1 µM) | 24.6 | 10 (≈ 22.6 µM) | 14 (≈ 31.6 µM) | 21 | 22.3 | 26.1 | 12 (≈ 27.1 µM)
COc1ccccc1C1SCC(=O)N1NC(=O)Cn1ncc2cc([N+](=O)[O-])ccc21 (stereo not given) | 16.8 | 18 | 30 (≈ 70.2 µM) | 16.1 | 17.2 | 13.9 | 20 (≈ 46.8 µM) | 16 | 13 | 15 | 17 (≈ 39.8 µM) | 14.8 | 20 (≈ 46.8 µM) | 28 (≈ 65.5 µM) | 11.5 | 12.5 | 15 | 22 (≈ 51.5 µM)
